From patent publication US8497240B2 (priority 2006, dated 2013)
Where two headings read alike, the source gives them in different places.

What was measured:
[1] = format: in vivo, NIH/Swiss mice
Description: (§1) In FIG. 3A, bars represent mean±sd, n=6-10. […] Gavage (1.5 g/kg) was given at t=0, Sample was taken at t=30 min. […] In FIG. 3B, points represent mean±sem, n=8-15.
Peptide was injected IP at t=−5 minutes into 4-hour fasted NIH/Swiss female mice. […] In FIG. 17 points represent mean+/−sem. […] Samples were taken at t=60, t=120 and t=180.

[2] = format: in vivo, NIH/Swiss mice; details: 80 nmol/kg, AUC240
Description: as §1
Points represent mean±sem.

[3] = target: T1, human GIP receptor (Homo sapiens, UniProt P48546); assay: biochemical; format: binding; details: read-out: GIP RBA (% Inh 10 nM)
T1 construct: expressed in transfected cells; host or cells: HEK293 (HEK-GIPR), membranes
T1 sequence (P48546 22-466): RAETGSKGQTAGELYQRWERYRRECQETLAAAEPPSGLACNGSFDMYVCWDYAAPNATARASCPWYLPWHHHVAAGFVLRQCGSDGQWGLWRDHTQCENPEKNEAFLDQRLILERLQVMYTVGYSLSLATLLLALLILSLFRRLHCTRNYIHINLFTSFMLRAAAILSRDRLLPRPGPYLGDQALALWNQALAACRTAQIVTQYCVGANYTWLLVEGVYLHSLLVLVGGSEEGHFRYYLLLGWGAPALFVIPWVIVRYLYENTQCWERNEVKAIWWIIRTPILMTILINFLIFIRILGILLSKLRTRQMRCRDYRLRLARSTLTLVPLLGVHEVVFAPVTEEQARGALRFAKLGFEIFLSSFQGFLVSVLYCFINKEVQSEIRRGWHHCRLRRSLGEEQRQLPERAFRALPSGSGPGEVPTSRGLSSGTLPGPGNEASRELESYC

Q: With `CC[C@H](C)[C@H](NC(=O)[C@H](CO)NC(=O)[C@H](Cc1ccc(O)cc1)NC(=O)[C@H](CC(=O)O)NC(=O)[C@H](CO)NC(=O)[C@@H](NC(=O)[C@H](Cc1ccccc1)NC(=O)[C@@H](NC(=O)CNC(=O)[C@H](CCC(=O)O)NC(=O)[C@@H](C)NC(=O)[C@@H](N)Cc1ccc(O)cc1)[C@@H](C)O)[C@@H](C)CC)C(=O)N[C@@H](C)C(=O)N[C@@H](CCSC)C(=O)N[C@@H](CC(=O)O)C(=O)N[C@@H](CCCCN)C(=O)N[C@H](C(=O)N[C@@H](Cc1c[nH]cn1)C(=O)N[C@@H](CCC(N)=O)C(=O)N[C@@H](CCC(N)=O)C(=O)N[C@@H](CC(=O)O)C(=O)N[C@@H](Cc1ccccc1)C(=O)N[C@H](C(=O)N[C@@H](CC(N)=O)C(=O)N[C@@H](Cc1c[nH]c2ccccc12)C(=O)N[C@@H](CC(C)C)C(=O)N[C@@H](CC(C)C)C(=O)N[C@@H](C)C(=O)N[C@@H](CCC(N)=O)C(=O)N[C@@H](CCCCN)C(=O)N1CCC[C@H]1C(=O)N[C@@H](CCCCN)C(=O)N[C@@H](CC(C)C)C(=O)N[C@H](C(=O)N[C@@H](CCCCN)C(=O)N[C@@H](CC(C)C)C(=O)N[C@H](C(=O)N[C@@H](CCCCN)C(=O)N[C@@H](CO)C(N)=O)[C@@H](C)CC)[C@@H](C)CC)C(C)C)[C@@H](C)CC` [0601GIP4346] as the molecule, how does the “OGTT/GL (%)” value ([1]; 30 nmol/kg) read?
A: −20, 30%

Q: And the “Basal Glucose Lowering at Peptide Conc. of 80 nmol/kg” value (shortened to “Basal Glucose Lowering”) [2]?
A: −10%, AUC240

Q: With `CC[C@H](C)[C@H](NC(=O)[C@H](CO)NC(=O)[C@H](Cc1ccc(O)cc1)NC(=O)[C@H](CC(=O)O)NC(=O)[C@H](CO)NC(=O)[C@@H](NC(=O)[C@H](Cc1ccccc1)NC(=O)[C@@H](NC(=O)CNC(=O)[C@H](CCC(=O)O)NC(=O)[C@@H](C)NC(=O)[C@H](Cc1ccc(O)cc1)NC)[C@@H](C)O)[C@@H](C)CC)C(=O)N[C@@H](C)C(=O)N[C@@H](CCSC)C(=O)N[C@@H](CC(=O)O)C(=O)N[C@@H](CCCCN)C(=O)N[C@H](C(=O)N[C@@H](Cc1c[nH]cn1)C(=O)N[C@@H](CCC(N)=O)C(=O)N[C@@H](CCC(N)=O)C(=O)N[C@@H](CC(=O)O)C(=O)N[C@@H](Cc1ccccc1)C(=O)N[C@H](C(=O)N[C@@H](CC(N)=O)C(=O)N[C@@H](Cc1c[nH]c2ccccc12)C(=O)N[C@@H](CC(C)C)C(=O)N[C@@H](CC(C)C)C(=O)N[C@@H](C)C(=O)N[C@@H](CCC(N)=O)C(=O)N[C@@H](CCCCN)C(=O)N1CCC[C@H]1C(=O)N[C@@H](CO)C(=O)N[C@@H](CO)C(=O)NCC(=O)N[C@@H](C)C(=O)N1CCC[C@H]1C(=O)N1CCC[C@H]1C(=O)N1CCC[C@H]1C(=O)N[C@@H](CO)C(N)=O)C(C)C)[C@@H](C)CC` [Compound 0601GIP4238] as the molecule, how does the “OGTT/GL (%)” value ([1]; 350 nmol/kg) read?
A: −25%

Q: And the “Basal Glucose Lowering” value [2]?
A: −6%, AUC240

Q: Which “OGTT/GL (%)” value ([1]; 30 nmol/kg) does the source give for `CC[C@H](C)[C@H](NC(=O)[C@H](CO)NC(=O)[C@H](Cc1ccc(O)cc1)NC(=O)[C@H](CC(=O)O)NC(=O)[C@H](CO)NC(=O)[C@@H](NC(=O)[C@H](Cc1ccccc1)NC(=O)[C@@H](NC(=O)CNC(=O)[C@H](CC(=O)O)NC(=O)[C@H](CO)NC(=O)[C@@H](N)Cc1ccc(O)cc1)[C@@H](C)O)[C@@H](C)CC)C(=O)N[C@@H](C)C(=O)N[C@@H](CCSC)C(=O)N[C@@H](CC(=O)O)C(=O)N[C@@H](CCCCN)C(=O)N[C@H](C(=O)N[C@@H](Cc1c[nH]cn1)C(=O)N[C@@H](CCC(N)=O)C(=O)N[C@@H](CCC(N)=O)C(=O)N[C@@H](CC(=O)O)C(=O)N[C@@H](Cc1ccccc1)C(=O)N[C@H](C(=O)N[C@@H](CC(N)=O)C(=O)N[C@@H](Cc1c[nH]c2ccccc12)C(=O)N[C@@H](CC(C)C)C(=O)N[C@@H](CC(C)C)C(=O)N[C@@H](C)C(=O)N[C@@H](CCC(N)=O)C(=O)N[C@@H](CCCCN)C(=O)NCCC(=O)N1CCC[C@H]1C(=O)N[C@@H](CO)C(=O)N[C@@H](CO)C(=O)NCC(=O)N[C@@H](C)C(=O)N1CCC[C@H]1C(=O)N1CCC[C@H]1C(=O)N1CCC[C@H]1C(=O)N[C@@H](CO)C(N)=O)C(C)C)[C@@H](C)CC` [Compound 0601GIP4395] here?
A: −11, 30%

Q: And the “Basal Glucose Lowering” value [2]?
A: −0%, AUC240

Q: With `CC[C@H](C)[C@H](NC(=O)CNC(=O)[C@H](CCCCN)NC(=O)[C@H](Cc1c[nH]c2ccccc12)NC(=O)[C@H](CC(C)C)NC(=O)[C@@H](NC(=O)[C@H](Cc1ccccc1)NC(=O)CNC(=O)[C@H](CCCCN)NC(=O)[C@H](CCC(N)=O)NC(=O)[C@H](C)NC(=O)[C@H](CC(C)C)NC(=O)[C@H](CC(C)C)NC(=O)[C@H](Cc1c[nH]c2ccccc12)NC(=O)[C@H](CC(N)=O)NC(=O)[C@@H](NC(=O)[C@H](Cc1ccccc1)NC(=O)[C@H](CC(=O)O)NC(=O)[C@H](CCC(N)=O)NC(=O)[C@H](CCC(N)=O)NC(=O)[C@H](Cc1c[nH]cn1)NC(=O)[C@@H](NC(=O)[C@H](CCCCN)NC(=O)[C@H](CC(=O)O)NC(=O)[C@H](CCSC)NC(=O)[C@H](C)NC(=O)[C@@H](NC(=O)[C@H](CO)NC(=O)[C@H](Cc1ccc(O)cc1)NC(=O)[C@H](CC(=O)O)NC(=O)[C@H](CO)NC(=O)[C@@H](NC(=O)[C@H](Cc1ccccc1)NC(=O)[C@@H](NC(=O)CNC(=O)[C@H](CCC(=O)O)NC(=O)[C@@H](C)NC(=O)[C@@H](N)Cc1ccc(O)cc1)[C@@H](C)O)[C@@H](C)CC)[C@@H](C)CC)[C@@H](C)CC)C(C)C)C(C)C)C(=O)N[C@@H](CCC(N)=O)C(N)=O` [Compound 0601GIP4619] as the molecule, how does the inhibition at 0.01 µM [3] read?
A: 84.6%

Q: Which results are given for `CC[C@H](C)[C@H](NC(=O)[C@H](CO)NC(=O)[C@H](Cc1ccc(O)cc1)NC(=O)[C@H](CC(=O)O)NC(=O)[C@H](CO)NC(=O)[C@@H](NC(=O)[C@H](Cc1ccccc1)NC(=O)[C@@H](NC(=O)CNC(=O)[C@H](CCC(=O)O)NC(=O)[C@@H](C)NC(=O)[C@@H](N)Cc1ccc(O)cc1)[C@@H](C)O)[C@@H](C)CC)C(=O)N[C@@H](C)C(=O)N[C@@H](CCSC)C(=O)N[C@@H](CC(=O)O)C(=O)N[C@@H](CCCCN)C(=O)N[C@H](C(=O)N[C@@H](Cc1c[nH]cn1)C(=O)N[C@@H](CCC(N)=O)C(=O)N[C@@H](CCC(N)=O)C(=O)N[C@@H](CC(=O)O)C(=O)N[C@@H](Cc1ccccc1)C(=O)N[C@H](C(=O)N[C@@H](CC(N)=O)C(=O)N[C@@H](Cc1c[nH]c2ccccc12)C(=O)N[C@@H](CC(C)C)C(=O)N[C@@H](CC(C)C)C(=O)N[C@@H](C)C(=O)N[C@@H](CCC(N)=O)C(=O)N[C@@H](CCCCN)C(=O)N1CCC[C@H]1C(=O)N[C@@H](CCCCN)C(=O)N[C@@H](CCCCN)C(=O)N[C@H](C(=O)N[C@@H](CCCNC(=N)N)C(=O)N[C@@H](C)C(=O)N[C@@H](CO)C(N)=O)[C@@H](C)CC)C(C)C)[C@@H](C)CC` [Compound 0601GIP4818]?
A: OGTT/GL (%) ([1]; 30 nmol/kg): −23, %; Basal Gluc. Low. 80 nmol/Kg [2]: −9%,

Q: Which “OGTT/GL (%)” value ([1]; 30 nmol/kg) does the source give for `CC[C@H](C)[C@H](NC(=O)[C@H](CO)NC(=O)[C@H](Cc1ccc(O)cc1)NC(=O)[C@H](CC(=O)O)NC(=O)[C@H](CO)NC(=O)[C@@H](NC(=O)[C@H](Cc1ccccc1)NC(=O)[C@@H](NC(=O)CNC(=O)[C@H](CCC(=O)O)NC(=O)[C@@H](C)NC(=O)[C@@H](N)Cc1ccc(O)cc1)[C@@H](C)O)[C@@H](C)CC)C(=O)N[C@@H](C)C(=O)N[C@@H](CCSC)C(=O)N[C@@H](CC(=O)O)C(=O)N[C@@H](CCCCN)C(=O)N[C@H](C(=O)N[C@@H](Cc1c[nH]cn1)C(=O)N[C@@H](CCC(N)=O)C(=O)N[C@@H](CCC(N)=O)C(=O)N[C@@H](CC(=O)O)C(=O)N[C@@H](Cc1ccccc1)C(=O)N[C@H](C(=O)N[C@@H](CCC(N)=O)C(=O)N[C@@H](Cc1c[nH]c2ccccc12)C(=O)N[C@@H](CC(C)C)C(=O)N[C@@H](CC(C)C)C(=O)N[C@@H](C)C(=O)N[C@@H](CCC(N)=O)C(=O)N[C@@H](CCCCN)C(=O)N1CCC[C@H]1C(=O)N[C@@H](CO)C(=O)N[C@@H](CO)C(=O)NCC(=O)N[C@@H](C)C(=O)N1CCC[C@H]1C(=O)N1CCC[C@H]1C(=O)N1CCC[C@H]1C(=O)N[C@@H](CO)C(N)=O)C(C)C)[C@@H](C)CC` [Compound 0601GIP4846] here?
A: −25, %

Q: And the “Basal Glucose Lowering” value [2]?
A: −6%,

Q: Which results are given for `CC[C@H](C)[C@H](NC(=O)[C@H](CO)NC(=O)[C@H](Cc1ccc(O)cc1)NC(=O)[C@H](CC(=O)O)NC(=O)[C@H](CO)NC(=O)[C@@H](NC(=O)[C@H](Cc1ccccc1)NC(=O)[C@@H](NC(=O)CNC(=O)[C@H](CCC(=O)O)NC(=O)[C@@H](C)NC(=O)[C@@H](N)Cc1ccc(O)cc1)[C@@H](C)O)[C@@H](C)CC)C(=O)N[C@@H](C)C(=O)N[C@@H](CCSC)C(=O)N[C@@H](CC(=O)O)C(=O)N[C@@H](CCCCN)C(=O)N[C@H](C(=O)N[C@@H](Cc1c[nH]cn1)C(=O)N[C@@H](CCC(N)=O)C(=O)N[C@@H](CCC(N)=O)C(=O)N[C@@H](CC(=O)O)C(=O)N[C@@H](Cc1ccccc1)C(=O)N[C@H](C(=O)N[C@@H](CC(N)=O)C(=O)N[C@@H](Cc1c[nH]c2ccccc12)C(=O)N[C@@H](CC(C)C)C(=O)N[C@@H](CC(C)C)C(=O)N[C@@H](C)C(=O)N[C@@H](CCC(N)=O)C(=O)N[C@@H](CCCCN)C(=O)N1CCC[C@H]1C(=O)N[C@@H](CO)C(=O)N[C@@H](CO)C(=O)NCC(=O)N[C@@H](C)C(=O)N1CCC[C@H]1C(=O)NCC(=O)N1CCC[C@H]1C(=O)N[C@@H](CO)C(N)=O)C(C)C)[C@@H](C)CC` [Compound 0601GIP4952]?
A: OGTT/GL (%) ([1]; 30 nmol/kg): −21, %; Basal Glucose Lowering at Peptide Conc. of 80 nmol/kg [2]: −1, %
